Data published in patent publication US9029405B2, “5-(biphenyl-4-yl)-3-phenyl-1,2,4-oxadiazolyl derivatives as ligands on the sphingosine 1-phosphate(SIP)receptors” (Merck Serono S.A., priority 2010, dated 2015).
Structures can show the parent of a compound that is named as a salt. Where two headings read alike, the source gives them in different places.

Key:
S1P1 [1] = target: T1, S1P1 (Homo sapiens, UniProt P21453); experiment: Receptor binding assay, [33P]sphingosine 1-phosphate competition, membranes of CHO cells expressing S1P1
Protocol: (§1) Membranes were prepared from CHO cells expressing S1P1 or S1P3 for use in ligand binding studies. Cells were suspended in 50 mM TRIS, pH 7.4, 2 mM EDTA, 250 mM Sucrose (buffer A) and 1× Complete protease inhibitor cocktail (Roche), and disrupted at 4° C. by N2 decompression using a cell disruption bomb (Parr Instrument). Following centrifugation at 1000 RPM for 10 min at 4° C., the supernatant was diluted (2×) in buffer A and centrifuged again at 19000 RPM for 75 min at 4° C. The pellet was then suspended in 10 mM HEPES, pH 7.4, 1 mM EDTA, 250 mM Sucrose (Buffer B), and 1× Complete EDTA-free protease inhibitor cocktail and homogenized using a potter. Membranes were flash frozen in liquid N2 and stored at −80° C.
(§2) [33P]sphingosine 1-phosphate (3000 Ci/mmol; American Radiolabeled Chemicals, Inc.) was added to test compounds in 20% DMSO by competition. Membranes and WGA SPA beads (GE Healthcare) were added to give a final volume of 100 μl in 96-well plates or 50 μl in 384-well plates with assay concentrations of 30 pM or 15 pM [33P]sphingosine 1-phosphate (respectively for S1P1 or S1P3), 50 mM HEPES, pH 7.5, 5 mM MgCl2, 100 mM NaCl, 0.4% fatty acid-free BSA, 1-5 μg/well of proteins in 96-well plates vs 0.6-1 μg/well of proteins in 384-well plates and 100 μg/well of WGA SPA beads in 96-well plates vs 75 μg/well of WGA SPA beads in 384-well plates. Binding was performed for 60 min at RT on a shaker and bound radioactivity was measured on a PerkinElmer 1450 MicroBeta counter. Triplicate samples were averaged and normalized as percentage of inhibition relative to total binding (only DMSO in well) and non specific binding (1000-fold excess of unlabeled S1P). Binding data were analyzed using the GraphPad Prism program or Genedata software.
(§3) The “potency” or the “activity” of the compounds is determined by the Ki values as evaluated in one of the above described binding assay, 96 or 384 well plates.
Target sequence in this assay (P21453 whole entry, species assumed): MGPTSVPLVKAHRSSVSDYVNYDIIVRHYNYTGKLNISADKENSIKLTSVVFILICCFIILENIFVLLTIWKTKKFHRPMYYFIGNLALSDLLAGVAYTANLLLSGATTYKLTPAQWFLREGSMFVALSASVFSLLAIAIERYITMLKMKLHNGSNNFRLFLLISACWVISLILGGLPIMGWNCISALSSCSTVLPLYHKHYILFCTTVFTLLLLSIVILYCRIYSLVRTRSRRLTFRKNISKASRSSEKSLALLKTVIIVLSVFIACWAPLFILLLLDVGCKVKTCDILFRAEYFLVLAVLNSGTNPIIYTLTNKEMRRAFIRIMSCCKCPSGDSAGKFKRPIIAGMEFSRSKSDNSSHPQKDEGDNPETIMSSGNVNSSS

S1P3 = S1P3 (Homo sapiens, UniProt Q99500); experiment: Receptor binding assay, [33P]sphingosine 1-phosphate competition, membranes of CHO cells expressing S1P3
Chain of S1P3 (Q99500 whole entry, species assumed): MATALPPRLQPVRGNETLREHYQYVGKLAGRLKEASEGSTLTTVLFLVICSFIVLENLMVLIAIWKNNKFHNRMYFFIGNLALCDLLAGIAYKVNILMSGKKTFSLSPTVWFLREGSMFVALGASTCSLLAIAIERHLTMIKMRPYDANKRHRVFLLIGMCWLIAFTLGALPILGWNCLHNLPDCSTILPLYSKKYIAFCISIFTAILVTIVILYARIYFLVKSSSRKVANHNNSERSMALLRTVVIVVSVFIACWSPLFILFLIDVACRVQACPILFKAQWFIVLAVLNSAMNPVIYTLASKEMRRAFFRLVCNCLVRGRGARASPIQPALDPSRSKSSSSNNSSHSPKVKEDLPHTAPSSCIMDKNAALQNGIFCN
Protocol: as §1, §2, §3

S1P1 [2] = target: T1, S1P1; experiment: S1P1 internalization assay in S1P1-U2OS cells (cell imaging); assay type: cell-based; parameters: host or cells: U2OS (human bone osteosarcoma epithelial cells); conditions: U2OS cells expressing S1P1-EGFP, 384-well format
Protocol: Cellular Functional Assays: Internalization of Sphinqosine-1-phosphate Receptor 1 (S1P1) in a Human Cell Line (U2OS) in a 384-Well Format Using a Cell Imaging Analysis.
The S1P1 internalization assay was performed in 384 well plates (Corning 384 black with clear bottom 3712) using S1P1-U2OS cells from BioImage (C039A), a human epithelial cell line (Human Bone Osteosarcoma Epithelial Cells). These cells expressed the human S1P1 Receptor fused to the green fluorescent protein (EGFP). A standard CMV promoter (cytomegalovirus promoter) controls the expression of S1P1-EGFP and continuous expression was maintained by addition of geneticin to the culture medium.
S1P1 Receptor desensitization induced the internalization of the membrane-localized S1P-EGFP fusion protein to endosomes, which can be monitored by cell imaging analysis.
The cells are plated in low serum medium (Dulbecco's Modified Eagle Medium (DMEM) with Glutamax-1 and high glucose, 1% Penicillin/Streptomycin, 1% Fetal Calf Serum (FCS), 0.5 mg/ml Geneticin) overnight.
The next day, S1P1-U2OS cells are incubated in 20 μl serum free medium (DMEM with Glutamax-1 and high glucose, 0.1% of fatty-acid free Bovin Serum Albumin (BSA), 10 mM, N′-2-Hydroxyethylpiperazine-N′-2 ethanesulphonic acid (HEPES) 1M) for 2 hours at 37° C./5% CO2. The cells are then treated with 4 μl compounds/agonists (6×/3% DMSO) for a total volume of 24 μl, and plates are incubated for 1 hour at 37° C./5% CO2.
S1P1-U2OS cells are fixed with 25 μl Paraformaldehyde 8% and stained with Hoechst 33345 dye (1:1000) for 20 minutes.
They were then washed 3 times with Phosphate Buffered Saline (PBS) and plates are sealed. The internalization of the receptor S1P1-EGFP is measured on Cellomics by calculating the “spot count per object” (“object” corresponds to nuclear and “spot” corresponds to S1P1-EGFP receptor). Internalization data were observed thanks to vHCS View and analyzed using Genedata® software.
Target sequence in this assay (P21453 whole entry): as the sequence (P21453 whole entry, species assumed) above

[3] = 384 well plate, read-out: S1P1 Binding Ki [M] (384 well plate)
[4] = 384 well plate, read-out: S1P3 Binding Ki [M] (384 well plate)
[5] = 96 well plate, read-out: S1P1 Binding Ki [M] (96 well plate)
[6] = 96 well plate, read-out: S1P3 Binding Ki [M] (96 well plate)

SMILES | Ki (S1P1 [1]; [3]) | Ki (S1P3; [4]) | EC50 (S1P1 [2]) | Ki (S1P1 [1]; [5]) | Ki (S1P3; [6])
Cc1ccccc1-c1ccc(-c2nc(-c3ccc(CCN[C@@H](C)C(=O)O)cc3)no2)cc1C(F)(F)F [Example 92] | 6.94e-09 M | 1.24e-06 M | 29.5 nM |  | 
Cc1ccccc1-c1ccc(-c2nc(-c3ccc(CCN[C@H](C)C(=O)O)cc3)no2)cc1C(F)(F)F [Example 93] | 1.22e-08 M | 4.67e-06 M | 28.6 nM |  | 
Cc1cc(-c2nc(-c3ccc([C@H](C)N[C@@H](C)C(=O)O)cc3)no2)ccc1-c1ccccc1C(F)(F)F (racemic) [Example 24, N-[(1S)-1-(4-{5-[2-methyl-2′-(trifluoromethyl)biphenyl-4-yl]-1,2,4-oxadiazol-3-yl}phenyl)ethyl]-L-alanine, hydrochloride salt and N-[(1R)-1-(4-{5-[2-methyl-2′-(trifluoromethyl)biphenyl-4-yl]-1,2,4-oxadiazol-3-yl}phenyl)ethyl]-D-alanine, hydrochloride salt] | 4.29e-09 M |  | 89.4 nM |  | 
Cc1ccccc1-c1ccc(-c2nc(-c3ccc([C@@H](CO)N[C@H](C)C(=O)O)cc3)no2)cc1C(F)(F)F (single isomer, unassigned) [Example 99, hydrochloride salt] |  |  |  | 8.85e-10 M | 2.3e-06 M
Cc1ccccc1-c1ccc(-c2nc(-c3ccc([C@H](CO)N[C@H](C)C(=O)O)cc3)no2)cc1C(F)(F)F (single isomer, unassigned) [Example 100, hydrochloride salt] |  |  |  | 1.09e-09 M | 2.45e-06 M
Cc1ccccc1-c1ccc(-c2nc(-c3cccc(CN(C)C(C)(CO)C(=O)O)c3)no2)cc1C(F)(F)F (stereo not shown) [Example 84] | 4.25e-09 M |  | 84.6 nM |  | 
COCC(c1ccc(-c2noc(-c3ccc(-c4ccccc4C)c(C(F)(F)F)c3)n2)cc1)N(C)CC(=O)O (stereo not shown) [Example 51, 2-((2-methoxy-1-(4-(5-(2′-methyl-2-(trifluoromethyl)biphenyl-4-yl)-1,2,4-oxadiazol-3-yl)phenyl)ethyl)(methyl)amino)acetic acid] | 7.52e-09 M |  | 29.8 nM |  | 
Cc1cc(-c2nc(-c3cccc(C(C)N(C)[C@@H](C)C(=O)O)c3)no2)ccc1-c1ccccc1C(F)(F)F (stereo partly shown) [Example 28, N-methyl-N-[1-(3-{5-[2-methyl-2′-(trifluoromethyl)biphenyl-4-yl]-1,2,4-oxadiazol-3-yl}phenyl)ethyl]alanine, hydrochloride salt] | 1.38e-08 M |  | 5170 nM |  | 
Cc1cc(-c2nc(-c3ccc([C@H](C)N(C)CC(=O)O)cc3)no2)ccc1-c1ccccc1C(F)(F)F [Example 33, N-methyl-N-[(1S)-1-(4-{5-[2-methyl-2′-(trifluoromethyl)biphenyl-4-yl]-1,2,4-oxadiazol-3-yl}phenyl)ethyl]glycine, hydrochloride salt] | 5.77e-09 M |  | 91 nM |  | 
Cc1cc(-c2nc(-c3cccc(C(C)N(C)CC(=O)O)c3)no2)ccc1-c1ccccc1C(F)(F)F (stereo not shown) [Example 30, N-methyl-N-[1-(3-{5-[2-methyl-2′-(trifluoromethyl)biphenyl-4-yl]-1,2,4-oxadiazol-3-yl}phenyl)ethyl]glycine, hydrochloride salt] | 1.43e-08 M |  | 410 nM |  | 

Second part, the compound after the results:

Ki (S1P1 [1]; [3]) | Ki (S1P3; [4]) | EC50 (S1P1 [2]) | Ki (S1P1 [1]; [5]) | Ki (S1P3; [6]) | SMILES
2.84e-09 M | 1.43e-06 M | 77.9 nM |  |  | Cc1cc(-c2nc(-c3cccc(C(C)NCC(=O)O)c3)no2)ccc1-c1ccccc1C(F)(F)F (stereo not shown) [Example 38, N-[1-(3-{5-[2-methyl-2′-(trifluoromethyl)biphenyl-4-yl]-1,2,4-oxadiazol-3-yl}phenyl)ethyl]glycine, hydrochloride salt]
5.47e-09 M |  | 39.9 nM |  |  | Cc1ccccc1-c1ccc(-c2nc(-c3cccc(CNC(C(=O)O)C(C)O)c3)no2)cc1C(F)(F)F (stereo not shown) [Example 77]
3.81e-09 M |  | 73.3 nM |  |  | CCCC(NCc1ccc(-c2noc(-c3ccc(-c4ccccc4C)c(C(F)(F)F)c3)n2)cc1)C(=O)O (stereo not shown) [Example 62]
 |  |  | 5.6e-10 M | 2.4e-08 M | CNCc1cccc(-c2noc(-c3ccc(-c4ccccc4C)c(C(F)(F)F)c3)n2)c1 [Example M2]
1.5e-08 M |  | 133 nM |  |  | COCC(NCc1cccc(-c2noc(-c3ccc(-c4ccccc4C)c(C(F)(F)F)c3)n2)c1)C(=O)O (stereo not shown) [Example 76, 3-Methoxy-2-{3-[5-(2′-methyl-2-trifluoromethyl-biphenyl-4-yl)-[1,2,4]oxadiazol-3-yl]-benzylamino}-propionic acid]
8.53e-09 M |  | 106 nM |  |  | Cc1ccccc1-c1ccc(-c2nc(-c3ccc(CN(C)C(C(=O)O)C(C)O)cc3)no2)cc1C(F)(F)F (stereo not shown) [Example 74]
 |  |  | 7.8e-10 M | 4.8e-07 M | COCc1cc(-c2nc(-c3ccc([C@@H](C)N(C)CC(=O)O)cc3)no2)ccc1-c1ccccc1C [Example 97, N-[(1R)-1-(4-{5-[2-(methoxymethyl)-2′-methylbiphenyl-4-yl]-1,2,4-oxadiazol-3-yl}phenyl)ethyl]-N-methylglycine, hydrochloride salt]
3.56e-09 M |  | 75.5 nM |  |  | Cc1ccccc1-c1ccc(-c2nc(-c3cccc(CN(C)C(C)(C)C(=O)O)c3)no2)cc1C(F)(F)F [Example 83, 2-Methyl-2-(methyl-{3-[5-(2′-methyl-2-trifluoromethyl-biphenyl-4-yl)-[1,2,4]oxadiazol-3-yl]-benzyl}-amino)-propionic acid]
 |  |  | 4.05e-10 M | 1.45e-06 M | Cc1ccccc1-c1ccc(-c2nc(-c3ccc([C@@H](C)N)cc3)no2)cc1C(F)(F)F [Example M1]
1.94e-08 M |  | 187 nM |  |  | CC[C@H](N[C@H](C)c1ccc(-c2noc(-c3ccc(-c4ccccc4C)c(C(F)(F)F)c3)n2)cc1)C(=O)O [Example 10, (2S)-2-{[(1R)-1-(4-{5-[2′-methyl-2-(trifluoromethyl)biphenyl-4-yl]-1,2,4-oxadiazol-3-yl}phenyl)ethyl]amino}butanoic acid, hydrochloride salt]
6.14e-09 M |  | 211 nM |  |  | Cc1cc(-c2nc(-c3ccc([C@@H](C)N(C)CC(=O)O)cc3)no2)ccc1-c1ccccc1C(F)(F)F [Example 35, N-methyl-N-[(1R)-1-(4-{5-[2-methyl-2′-(trifluoromethyl)biphenyl-4-yl]-1,2,4-oxadiazol-3-yl}phenyl)ethyl]glycine, hydrochloride salt]
2.85e-09 M |  | 69.7 nM |  |  | CCN(Cc1cccc(-c2noc(-c3ccc(-c4ccccc4C)c(C(F)(F)F)c3)n2)c1)C(C)(C)C(=O)O [Example 88, 2-(Ethyl-{3-[5-(2′-methyl-2-trifluoromethyl-biphenyl-4-yl)-[1,2,4]oxadiazol-3-yl]-benzyl}-amino)-2-methyl-propionic acid]
 |  |  | 6.2e-10 M | ≥ 2e-05 M | COCc1cc(-c2nc(-c3ccc([C@H](C)N(C)CC(=O)O)cc3)no2)ccc1-c1ccccc1C [Example 98, N-[(1S)-1-(4-{5-[2-(methoxymethyl)-2′-methylbiphenyl-4-yl]-1,2,4-oxadiazol-3-yl}phenyl)ethyl]-N-methylglycine, hydrochloride salt]
